From ChEMBL document CHEMBL3045835, “Comparative study of conventional and microwave-assisted synthesis of some Schiff bases and their potential as antimicrobial agents” (2012)
≈ marks a conversion by molar mass, not a printed value.

Columns and labels:
Format in all cases: functional
Pseudomonas fluorescens [1] = test: Antibacterial activity against Pseudomonas fluorescens MTCC 2421 at 1500 ug/ml after 18 hr by cup-plate method; settings: MTCC 2421, 18 h, read-out: DIZ
Staphylococcus aureus [2] = test: Antibacterial activity against Staphylococcus aureus MTCC 1430 after 24 hr by broth dilution method; settings: MTCC 1430, 24 h
Aspergillus niger [3] = test: Antifungal activity against Aspergillus niger MTCC 2546 at 1500 ug/ml after 18 hr by cup-plate method; settings: MTCC 2546, 18 h, read-out: DIZ
Pseudomonas aeruginosa [4] = test: Antibacterial activity against Pseudomonas aeruginosa MTCC 424 at 1500 ug/ml after 18 hr by cup-plate method; settings: MTCC 424, 18 h, read-out: DIZ
Micrococcus luteus [5] = test: Antibacterial activity against Micrococcus luteus MTCC 1538 at 200 ug/ml after 18 hr by cup-plate method; settings: MTCC 1538, 18 h, read-out: DIZ
Bacillus subtilis [6] = test: Antibacterial activity against Bacillus subtilis MTCC 441 at 1000 ug/ml after 18 hr by cup plate method; settings: MTCC 441, 18 h, read-out: DIZ
Aspergillus niger [7] = test: Antifungal activity against Aspergillus niger MTCC 2546 at 500 ug/ml after 18 hr by cup-plate method; settings: MTCC 2546, 18 h, read-out: DIZ
Pseudomonas fluorescens [8] = test: Antibacterial activity against Pseudomonas fluorescens MTCC 2421 at 1000 ug/ml after 18 hr by cup-plate method; settings: MTCC 2421, 18 h, read-out: DIZ
Bacillus subtilis [9] = test: Antibacterial activity against Bacillus subtilis MTCC 441 after 24 hr by broth dilution method; settings: MTCC 441, 24 h
Pseudomonas aeruginosa [10] = test: Antibacterial activity against Pseudomonas aeruginosa MTCC 424 after 24 hr by broth dilution method; settings: MTCC 424, 24 h
Bacillus pumilus [11] = test: Antibacterial activity against Bacillus pumilus MTCC 1456 at 1500 ug/ml after 18 hr by cup-plate method; settings: MTCC 1456, 18 h, read-out: DIZ
Bacillus pumilus [12] = test: Antibacterial activity against Bacillus pumilus MTCC 1456 after 24 hr by broth dilution method; settings: MTCC 1456, 24 h
Pseudomonas fluorescens [13] = test: Antibacterial activity against Pseudomonas fluorescens MTCC 2421 after 24 hr by broth dilution method; settings: MTCC 2421, 24 h
Penicillium chrysogenum [14] = test: Antifungal activity against Penicillium chrysogenum MTCC 161 at 1500 ug/ml after 18 hr by cup-plate method; settings: MTCC 161, 18 h, read-out: DIZ
Staphylococcus aureus [15] = test: Antibacterial activity against Staphylococcus aureus MTCC 1430 at 500 ug/ml after 18 hr by cup-plate method; settings: MTCC 1430, 18 h, read-out: DIZ
Micrococcus luteus [16] = test: Antibacterial activity against Micrococcus luteus MTCC 1538 at 1000 ug/ml after 18 hr by cup-plate method; settings: MTCC 1538, 18 h, read-out: DIZ
Staphylococcus aureus [17] = test: Antibacterial activity against Staphylococcus aureus MTCC 1430 at 100 ug/ml after 18 hr by cup-plate method; settings: MTCC 1430, 18 h, read-out: DIZ
Pseudomonas fluorescens [18] = test: Antibacterial activity against Pseudomonas fluorescens MTCC 2421 at 100 ug/ml after 18 hr by cup-plate method; settings: MTCC 2421, 18 h, read-out: DIZ
Pseudomonas fluorescens [19] = test: Antibacterial activity against Pseudomonas fluorescens MTCC 2421 at 500 ug/ml after 18 hr by cup-plate method; settings: MTCC 2421, 18 h, read-out: DIZ
Micrococcus luteus [20] = test: Antibacterial activity against Micrococcus luteus MTCC 1538 at 100 ug/ml after 18 hr by cup-plate method; settings: MTCC 1538, 18 h, read-out: DIZ
Staphylococcus aureus [21] = test: Antibacterial activity against Staphylococcus aureus MTCC 1430 at 200 ug/ml after 18 hr by cup-plate method; settings: MTCC 1430, 18 h, read-out: DIZ
Pseudomonas aeruginosa [22] = test: Antibacterial activity against Pseudomonas aeruginosa MTCC 424 at 1000 ug/ml after 18 hr by cup-plate method; settings: MTCC 424, 18 h, read-out: DIZ
Micrococcus luteus [23] = test: Antibacterial activity against Micrococcus luteus MTCC 1538 at 500 ug/ml after 18 hr by cup-plate method; settings: MTCC 1538, 18 h, read-out: DIZ
Penicillium chrysogenum [24] = test: Antifungal activity against Penicillium chrysogenum MTCC 161 at 500 ug/ml after 18 hr by cup-plate method; settings: MTCC 161, 18 h, read-out: DIZ
Bacillus pumilus [25] = test: Antibacterial activity against Bacillus pumilus MTCC 1456 at 1000 ug/ml after 18 hr by cup-plate method; settings: MTCC 1456, 18 h, read-out: DIZ
Bacillus subtilis [26] = test: Antibacterial activity against Bacillus subtilis MTCC 441 at 1500 ug/ml after 18 hr by cup plate method; settings: MTCC 441, 18 h, read-out: DIZ
Staphylococcus aureus [27] = test: Antibacterial activity against Staphylococcus aureus MTCC 1430 at 1000 ug/ml after 18 hr by cup-plate method; settings: MTCC 1430, 18 h, read-out: DIZ
Pseudomonas fluorescens [28] = test: Antibacterial activity against Pseudomonas fluorescens MTCC 2421 at 200 ug/ml after 18 hr by cup-plate method; settings: MTCC 2421, 18 h, read-out: DIZ
Penicillium chrysogenum [29] = test: Antifungal activity against Penicillium chrysogenum MTCC 161 at 1000 ug/ml after 18 hr by cup-plate method; settings: MTCC 161, 18 h, read-out: DIZ
Penicillium chrysogenum [30] = test: Antifungal activity against Penicillium chrysogenum MTCC 161 after 24 hr by broth dilution method; settings: MTCC 161, 24 h
Escherichia coli [31] = test: Antibacterial activity against Escherichia coli MTCC 1573 after 24 hr by broth dilution method; settings: MTCC 1573, 24 h
Micrococcus luteus [32] = test: Antibacterial activity against Micrococcus luteus MTCC 1538 after 24 hr by broth dilution method; settings: MTCC 1538, 24 h
Escherichia coli [33] = test: Antibacterial activity against Escherichia coli MTCC 1573 at 1500 ug/ml after 18 hr by cup-plate method; settings: MTCC 1573, 18 h, read-out: DIZ
Aspergillus niger [34] = test: Antifungal activity against Aspergillus niger MTCC 2546 after 24 hr by broth dilution method; settings: MTCC 2546, 24 h
Staphylococcus aureus [35] = test: Antibacterial activity against Staphylococcus aureus MTCC 1430 at 1500 ug/ml after 18 hr by cup-plate method; settings: MTCC 1430, 18 h, read-out: DIZ
Aspergillus niger [36] = test: Antifungal activity against Aspergillus niger MTCC 2546 at 1000 ug/ml after 18 hr by cup-plate method; settings: MTCC 2546, 18 h, read-out: DIZ
Micrococcus luteus [37] = test: Antibacterial activity against Micrococcus luteus MTCC 1538 at 1500 ug/ml after 18 hr by cup-plate method; settings: MTCC 1538, 18 h, read-out: DIZ
Escherichia coli [38] = test: Antibacterial activity against Escherichia coli MTCC 1573 at 1000 ug/ml after 18 hr by cup-plate method; settings: MTCC 1573, 18 h, read-out: DIZ

MIC (Staphylococcus aureus [2]): 400 µg/mL (≈ 1510 µM) | MIC (Bacillus subtilis [9]): 500 µg/mL (≈ 1880 µM) | MIC (Pseudomonas aeruginosa [10]): 500 µg/mL (≈ 1880 µM) | MIC (Bacillus pumilus [12]): 500 µg/mL (≈ 1880 µM) | MIC (Pseudomonas fluorescens [13]): 300 µg/mL (≈ 1130 µM) | MIC (Penicillium chrysogenum [30]): 500 µg/mL (≈ 1880 µM) | MIC (Escherichia coli [31]): 500 µg/mL (≈ 1880 µM) | MIC (Micrococcus luteus [32]): 300 µg/mL (≈ 1130 µM) | MIC (Aspergillus niger [34]): 500 µg/mL (≈ 1880 µM)
Structure (SMILES): Clc1ccc(/N=C\c2cccc3ccccc23)cc1
zone of inhibition at 1500 µg/mL (Pseudomonas fluorescens [1]): 19 mm | zone of inhibition at 1500 µg/mL (Aspergillus niger [3]): 15 mm | zone of inhibition at 1500 µg/mL (Pseudomonas aeruginosa [4]): 14 mm | zone of inhibition at 200 µg/mL (Micrococcus luteus [5]): 16 mm | zone of inhibition at 1000 µg/mL (Bacillus subtilis [6]): 15 mm | zone of inhibition at 500 µg/mL (Aspergillus niger [7]): 11 mm | zone of inhibition at 1000 µg/mL (Pseudomonas fluorescens [8]): 17 mm | zone of inhibition at 1500 µg/mL (Bacillus pumilus [11]): 10 mm | zone of inhibition at 1500 µg/mL (Penicillium chrysogenum [14]): 14 mm | zone of inhibition at 500 µg/mL (Staphylococcus aureus [15]): 15 mm | zone of inhibition at 1000 µg/mL (Micrococcus luteus [16]): 21 mm | zone of inhibition at 100 µg/mL (Staphylococcus aureus [17]): 11 mm | zone of inhibition at 100 µg/mL (Pseudomonas fluorescens [18]): 11 mm | zone of inhibition at 500 µg/mL (Pseudomonas fluorescens [19]): 14 mm | zone of inhibition at 100 µg/mL (Micrococcus luteus [20]): 13 mm | zone of inhibition at 200 µg/mL (Staphylococcus aureus [21]): 13 mm | zone of inhibition at 1000 µg/mL (Pseudomonas aeruginosa [22]): 13 mm | zone of inhibition at 500 µg/mL (Micrococcus luteus [23]): 19 mm | zone of inhibition at 500 µg/mL (Penicillium chrysogenum [24]): 11 mm | zone of inhibition at 1000 µg/mL (Bacillus pumilus [25]): 9 mm | zone of inhibition at 1500 µg/mL (Bacillus subtilis [26]): 17 mm | zone of inhibition at 1000 µg/mL (Staphylococcus aureus [27]): 18 mm | zone of inhibition at 200 µg/mL (Pseudomonas fluorescens [28]): 12 mm | zone of inhibition at 1000 µg/mL (Penicillium chrysogenum [29]): 13 mm | zone of inhibition at 1500 µg/mL (Escherichia coli [33]): 17 mm | zone of inhibition at 1500 µg/mL (Staphylococcus aureus [35]): 21 mm | zone of inhibition at 1000 µg/mL (Aspergillus niger [36]): 13 mm | zone of inhibition at 1500 µg/mL (Micrococcus luteus [37]): 25 mm | zone of inhibition at 1000 µg/mL (Escherichia coli [38]): 11 mm
